Source: patent publication US9757477B2, “Imaging brown adipose tissue with curcumin derivatives” (The General Hospital Corporation, priority 2013, dated 2017)
Where “and” joins values, the source holds several entries; their conditions need not be identical. Equal values may be shown once. Entries after “also recorded” stand apart in the source; their conditions may differ.

How the values were obtained:
[1] = Excitation and emission wavelengths of BAT imaging agents; type: physicochemical
Method: In some embodiments, the methods include irradiating the mammal with light of the appropriate wavelength to excite the BAT imaging agent, and detecting emissions therefrom.
Fluorescent dyes were purchased from Exciton Inc. (Dayton, Ohio) and Invitrogen. The reagents used for the synthesis were purchased from Aldrich and used without further purification. Column chromatography was performed on silica gel (SiliCycle Inc., 60 Å, […]) slurry packed into glass columns. 1H, 13C NMR spectra were recorded at 500 MHz and 125 MHz respectively, and reported in ppm downfield from tetramethylsilane. Fluorescence studies were carried out using a F-4500 Fluorescence Spectrophotometer (Hitachi). Mass spectra were obtained at Harvard University, Department of Chemistry Instrumentation Facility. Microscopic images were acquired with Nikon Eclipse 50i microscope. In vivo NIR imaging was performed using the IVIS® Spectrum animal imaging system (Caliper LifeSciences, Perkin Elmer, Hopkinton, Mass.), and data analysis was conducted using LivingImage® 4.2.1 software.

interscapular BAT [2] = assay: Re-testing of hits with stepwise dissection and NIR imaging; type: in vivo, mice; details: stepwise dissection
Method: Like protein/cell-based screening, hit re-testing experiments were conducted to validate the reliability of this approach. CRANAD-2, -3, LDS 722 and Rhodamine 640 were subjected to re-testing by repeating the above imaging procedure. Images were acquired one hour after probe injection.
Next, stepwise dissection and imaging were performed to track the source of the fluorescence contrast at the interscapular site. Skin and the thin WAT layer that covers BAT were first removed, and then BAT was dissected, and NIR images were captured at each step. […] The signal contribution from BAT (R(BAT)) was roughly estimated using the ratio of fluorescence signals acquired after (F(BAT)) and before (F(intact)) the first step dissection of skin and WAT.

interscapular BAT [3] = assay: Top-down whole-organism NIR fluorescence screening of dyes (ROI1/ROI2 contrast); type: in vivo, nude mice; details: for visible contrast around the interscapular BAT area: in vivo NIR images; for Ratio No 1 (ROI1/ROI2 average fluorescence intensity) / Ratio No 2 (ROI1/ROI2 average fluorescence intensity) / Ratio No 3 (ROI1/ROI2 average fluorescence intensity) / Ratio AVERAGE (mean ratio ROI1/ROI2): nude mice, one hour post-injection; for Ratio No 1 (ROI1/ROI2 average fluorescence intensity) / Ratio No 2 (ROI1/ROI2 average fluorescence intensity) / Ratio No 3 (ROI1/ROI2 average fluorescence intensity): 10 μg/mouse i.v.; for Ratio No 1 (ROI1/ROI2 average fluorescence intensity): first excitation/emission filter pair; for Ratio No 2 (ROI1/ROI2 average fluorescence intensity): second excitation/emission filter pair; for Ratio No 3 (ROI1/ROI2 average fluorescence intensity): third excitation/emission filter pair; for Ratio AVERAGE (mean ratio ROI1/ROI2): i.v., mean of three filter pairs, hit threshold >1.10
Method: 38 fluorescent dyes from commercial resources and from the inventors' laboratory were screened. Dyes with excitation range of 550-745 nm, emission range of 600-840 nm, and with molecular weight of less than 700 Da (except Cy5.5) (representative dyes are listed in FIG. 1d and the full list is shown in Table 2). Their hydrophobicities were not determined. The library was screened by intravenous tail injection of compounds into nude mice (10μg/mouse). Each dye was imaged with three optimized excitation/emission filter-pairs, and images at one hour after i.v. injection were acquired.
Top-down whole organism screening was performed as follows. Nude mice (nu/nu COX7) were purchased from Massachusetts General Hospital and Balb/c mice were from Jackson Laboratory. All animal experimental procedures were approved by the Institutional Animal Care and Use Committee (IACUC) at Massachusetts General Hospital. Dye stock solutions were prepared in DMSO. The final injection solution (0.1 mg/ml) was freshly prepared in a mixed solution of 20% DMSO, 20% Cremophor EL and 60% saline. Nude mice (n=5) were injected with a 100 μL dye solution via tail vein. For each imaging session, mice were anesthetized with a mixture of oxygen and isoflurane for 5 minutes, and then positioned into the imaging chamber of IVIS® Spectrum in vivo pre-clinical imaging system. Images were acquired at one-hour post-injection using sequence imaging with three excitation/emission filter pairs for each dye.
Hits selection was performed as follows. Hits from cell- or protein-based screening are usually selected by setting certain threshold. In the case of the top-down imaging screening, two methods were used (threshold and visible contrast) to select hits. First, three images obtained with three excitation/emission pairs were selected for each dye. These ex/em pairs were selected from the closest excitation and emission wavelengths of the tested dyes. For instance, 605/660 nm, 605/680 nm, 640/680 nm were selected for image acquisition of Nile blue (625/660 nm). The quantification of contrast for each image was calculated as a ratio of two ROIs (region of interest). ROI1 reflected the average signal from interscapular BAT and ROI2 was the average signal of the area that included BAT and white adipose tissue (WAT) around the interscapular site (FIG. 1b, left). The averaged fluorescent signal of ROI was used instead of the total signal, because the total signal depends on the area of ROI, whereas the averaged signal reflects the density of signal. The ratio of ROI1/ROI2 could reflect the signal/noise ratio of the tested probe, and could also reflect the selectivity of the probe for BAT over WAT. For each dye, three ROI1/ROI2 ratios obtained with the three filter pairs were calculated. The mean of the ratios was used as the threshold. If the mean ratio was >1.10, the dye was selected as a potential positive hit (FIG. 1c). Since the contrast of a dye in the top-down screening is in the visible range, the visible contrast around the interscapular BAT area was also tested for the hits with the mean ratio of >1.10. If both mean ratio and the visible contrast were positive, then the hit was subjected to re-testing procedure to validate its reliability as described below.
Although CRANAD-2 and CRANAD-3 were able to provide certain contrast for BAT in vivo, their excitation and emission wavelengths were still shorter than required for an ideal NIR imaging probe (both excitation and emission >640 nm). […] To seek better probes, a sub-library was synthesized based on the structures of the lead probes CRANAD-2 and -3. CRANAD-6, -19, -22, -24, -26, -32 and -43 were synthesized and tested (images and chemical structures, excitation and emission spectra are shown in FIG. 9 a-e). […] However, the ROI1/ROI2 ratio of CRANAD-22 was not improved (FIG. 9c).

| Compound | Emission λ [1] [nm] | Excitation λ [1] [nm] | selectivity for BAT (over WAT) (interscapular BAT [2]) | visible contrast around the interscapular BAT area (interscapular BAT [3]) | ROI1/ROI2 ratio compared with lead probe (interscapular BAT [3]; sub-library probes, compared with CRANAD-2) | Ratio No 1 (ROI1/ROI2 average fluorescence intensity) (interscapular BAT [3]) | Ratio No 2 (ROI1/ROI2 average fluorescence intensity) (interscapular BAT [3]) | Ratio No 3 (ROI1/ROI2 average fluorescence intensity) (interscapular BAT [3]) | Ratio AVERAGE (mean ratio ROI1/ROI2) (interscapular BAT [3]) | fluorescence signal from BAT (before vs after BAT removal) (interscapular BAT [2]) |
| --- | --- | --- | --- | --- | --- | --- | --- | --- | --- | --- |
| CN(C)c1ccc(/C=C/C2=CC(/C=C/c3ccc(N(C)C)c4ccccc34)=[O+][B-](F)(F)O2)c2ccccc12 [CRANAD-6] | 750 | 620 |  |  |  |  |  |  |  |  |
| F[B-]1(F)OC(/C=C/c2c(-c3ccccc3)[nH]c3ccccc23)=CC(/C=C/c2c(-c3ccccc3)[nH]c3ccccc23)=[O+]1 [CRANAD-26] | 637 | 587 |  |  |  |  |  |  |  |  |
| CN(C)c1ccc(/C=C/C=C/C2=CC(/C=C/C=C/c3ccc(N(C)C)cc3)=[O+][B-](F)(F)O2)cc1 [CRANAD-43] | 700 | 640 | not significantly increased; also recorded: poor selectivity | best contrast | higher |  |  |  |  |  |
| N=c1cc2oc3cc(N)ccc3nc-2c2ccccc12 [Cresyl Violet] |  |  |  |  |  | 9.56E−01 | 9.72E−01 | 1.02E+00 | 9.81E−01 |  |
| CCN1/C(=C/C=C/C=C/c2oc3ccccc3[n+]2CC)Oc2ccccc21.[I-] [DODC] |  |  |  |  |  | 1.08E+00 | 1.09E+00 | 1.10E+00 | 1.09E+00 |  |
| CCN1/C(=C/C=C/C=C/C=C/c2oc3ccccc3[n+]2CC)Oc2ccccc21.[I-] [DOTC] |  |  |  |  |  | 9.48E−01 | 9.44E−01 | 9.52E−01 | 9.48E−01 |  |
| CN1C(=CC=CC=CC2=[N+](C)c3ccccc3C2(C)C)C(C)(C)c2ccccc21.[I-] [HIDC] |  |  |  |  |  | 1.01E+00 | 1.01E+00 | 1.02E+00 | 1.01E+00 |  |
| CN1C(=CC=CC=CC=CC2=[N+](C)c3ccccc3C2(C)C)C(C)(C)c2ccccc21.[I-] [HITC] |  |  |  |  |  | 1.07E+00 | 1.02E+00 | 1.06E+00 | 1.05E+00 |  |
| CC1(C)C(/C=C/C=C/C=C/C=C2\N(CCCCS(=O)(=O)[O-])c3ccc4ccccc4c3C2(C)C)=[N+](CCCCS(=O)(=O)[O-])c2ccc3ccccc3c21.[Na+] [IR125] |  |  |  |  |  | 8.65E−01 | 9.76E−01 | 8.49E−01 | 8.97E−01 |  |
| CN1/C(=C/C=C2\CCCC(/C=C/C3=[N+](C)c4ccc5ccccc5c4C3(C)C)=C2Cl)C(C)(C)c2c1ccc1ccccc21.Cc1ccc(S(=O)(=O)[O-])cc1 [IR813] |  |  |  |  |  | 1.08E+00 | 9.91E−01 | 1.08E+00 | 1.05E+00 |  |
| CC[n+]1ccccc1/C=C/C=C/c1ccc(N(C)C)cc1.[O-][Cl+3]([O-])([O-])[O-] [LDS698] |  |  |  |  |  | 1.03E+00 | 1.06E+00 | 1.04E+00 | 1.04E+00 |  |
| CC[n+]1ccc(C=CC=Cc2ccc(N(C)C)cc2)cc1.[O-][Cl+3]([O-])([O-])[O-] [LDS722] |  |  |  | weak contrast and no clear triangular contours |  | 1.15E+00 | 1.14E+00 | 1.08E+00 | 1.13 and 1.13E+00 | no significant fluorescent signal was from BAT |
| CN(C)c1ccc(/C=C/C=C/C2=[N+](C)c3ccccc3C2(C)C)cc1.[O-][Cl+3]([O-])([O-])[O-] [LDS730] |  |  |  |  |  | 1.03E+00 | 1.08E+00 | 1.09E+00 | 1.07E+00 |  |
| CC[n+]1c(/C=C/C=C/c2ccc(N(C)C)cc2)ccc2cc(N(C)C)ccc21.[O-][Cl+3]([O-])([O-])[O-] [LDS751] |  |  |  |  |  | 1.07E+00 | 1.05E+00 | 1.11E+00 | 1.08E+00 |  |
| CC[n+]1ccc(/C=C/C=C/c2ccc(N(C)C)cc2)c2ccccc21.[O-][Cl+3]([O-])([O-])[O-] [LDS798] |  |  |  |  |  | 1.00E+00 | 1.00E+00 | 9.88E−01 | 9.98E−01 |  |
| CCN=c1cc2oc3c4c5c(cc3nc-2c2ccccc12)CCCN5CCC4 [OX750] |  |  |  |  |  | 1.09E+00 | 1.09E+00 | 1.04E+00 | 1.07E+00 |  |
| CC1=C(C)C(C)=[N+]2C1=C(C#N)c1c(C)c(C)c(C)n1[B-]2(F)F [Pyromethene650] |  |  |  |  |  | 1.09E+00 | 1.07E+00 | 1.08E+00 | 1.08E+00 |  |
| O=C(O)c1ccccc1C1=c2cc3c4c(c2Oc2c1cc1c5c2CCCN5CCC1)CCC[N+]=4CCC3.[Cl-] [Rhodamine640] |  |  |  | weak contrast and no clear triangular contours |  | 1.15E+00 | 1.15E+00 | 1.15E+00 | 1.15 and 1.15E+00 | no significant signals were from BAT |
| CCN(CC)c1ccc2c(-c3ccccc3C(C)=O)c3ccc(=[N+](CC)CC)cc-3oc2c1 [RhodamineB] |  |  |  |  |  | 1.01E+00 | 1.01E+00 | 9.54E−01 | 9.90E−01 |  |
| Cy5.5 |  |  |  |  |  | 1.07E+00 | 1.07E+00 | 1.06E+00 | 1.07E+00 |  |
| Sulforhodamine |  |  |  |  |  | 8.51E−01 | 8.86E−01 | 9.21E−01 | 8.86E−01 |  |
